Source: PubChem BioAssay AID328 (DTP/NCI, 2004)
Several values for one entry are separate records, joined by “and”; a condition that tells them apart may be missing. Identical values can stand only once. Inconclusive results and toxic doses are left out. Non-standard residues stand in square brackets, D forms with d. Residues, ends and D or L forms follow the SMILES beside them. *: point of attachment. Nle = CCCC[CH](N)C(=O)O; Cbz = O=C(OCc1ccccc1)*; OBn = c1ccc(CO*)cc1

System: BDF1 mice, P388 leukemia ip, median survival T/C
Assay: NCI In Vivo Anticancer Drug Screen. Data for tumor model P388 Leukemia (intraperitoneal) in B6D2F1 (BDF1) mice
Settings: endpoint: median survival time, higher = longer survival
Procedure, shortened: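 In tumour-bearing mice, survival after compound treatment is set against the vehicle group and given as a quotient.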

[1] = dose: 100.0 mg/kg/injection, schedule: Q04DX003 (ip), vehicle: Klucel (hydroxypropylcellulose) (HPC)
[2] = dose: 400.0 mg/kg/injection, schedule: Q04DX003 (ip), vehicle: Klucel (hydroxypropylcellulose) (HPC)
[3] = dose: 200.0 mg/kg/injection, schedule: Q04DX003 (ip), vehicle: Klucel (hydroxypropylcellulose) (HPC)
[4] = dose: 100.0 mg/kg/injection, schedule: Q04DX003 (ip), vehicle: saline with Tween-80
[5] = dose: 200.0 mg/kg/injection, schedule: Q04DX003 (ip), vehicle: saline with Tween-80

For `CS(=O)(=O)OCCN(CCOS(C)(=O)=O)c1cccc(Cl)c1`, the T/C (dose: 1.0 mg/kg/injection, schedule: Q04DX003 (ip), vehicle: saline with Tween-80) was 100 % of control, the T/C (dose: 2.0 mg/kg/injection, schedule: Q04DX003 (ip), vehicle: saline with Tween-80) was 100 % of control and the T/C (dose: 4.0 mg/kg/injection, schedule: Q04DX003 (ip), vehicle: saline with Tween-80) was 172 % of control. The T/C (dose: 6.25 mg/kg/injection, schedule: Q01DX009 (ip), vehicle: other) was 163 % of control, the T/C (dose: 6.25 mg/kg/injection, schedule: Q04DX003 (ip), vehicle: saline) was 110 % of control and the T/C (dose: 8.0 mg/kg/injection, schedule: Q04DX003 (ip), vehicle: saline with Tween-80) was 177 % of control. For the same molecule, the T/C (dose: 12.5 mg/kg/injection, schedule: Q01DX009 (ip), vehicle: Klucel (hydroxypropylcellulose) (HPC)) was 168 % of control, the T/C (dose: 12.5 mg/kg/injection, schedule: Q01DX009 (ip), vehicle: other) was 200 % of control and the T/C (dose: 18.7 mg/kg/injection, schedule: Q01DX009 (ip), vehicle: Klucel (hydroxypropylcellulose) (HPC)) was 186 % of control. The T/C (dose: 22.0 mg/kg/injection, schedule: Q04DX003 (ip), vehicle: other) was 240 % of control, the T/C (dose: 25.0 mg/kg/injection, schedule: Q01DX009 (ip), vehicle: other) was 95 % of control and the T/C (dose: 50.0 mg/kg/injection, schedule: Q04DX003 (ip), vehicle: other) was 90 % of control. For the same molecule, the T/C (dose: 75.0 mg/kg/injection, schedule: Q04DX003 (ip), vehicle: other) was 90 % of control.

`Cc1cc(OCc2nc(N)nc(N)c2-c2ccc(Cl)c(Cl)c2)ccc1NS(=O)(=O)c1cccc(S(=O)(=O)F)c1` was tested, and the T/C (dose: 45.0 mg/kg/injection, schedule: Q04DX003 (ip), vehicle: Klucel (hydroxypropylcellulose) (HPC)) was 109 % of control, the T/C (dose: 65.0 mg/kg/injection, schedule: Q04DX003 (ip), vehicle: Klucel (hydroxypropylcellulose) (HPC)) was 118 % of control and the T/C [1] was 122 % of control. The T/C (dose: 264.0 mg/kg/injection, schedule: Q04DX003 (ip), vehicle: Klucel (hydroxypropylcellulose) (HPC)) was 175 % of control and the T/C [2] was 170 % of control.

`CCCCC(NC(=O)C1CCCN1C(=O)OCc1ccccc1)C(=O)OCc1ccccc1` (stereo not drawn) (Cbz-Pro-[Nle]-OBn; configuration not given here) was tested, and the T/C (dose: 50.0 mg/kg/injection, schedule: Q01DX005 (ip), vehicle: saline with Tween-80) was 88 % of control, the T/C (dose: 100.0 mg/kg/injection, schedule: Q01DX005 (ip), vehicle: saline with Tween-80) was 101 % of control and the T/C (dose: 200.0 mg/kg/injection, schedule: Q01DX005 (ip), vehicle: saline with Tween-80) was 97 % of control.

For `CCOc1ccc(OCC)c2c1C(=O)c1ccccc1C2=O`, the T/C [1] was 100 % of control, the T/C [3] was 105 % of control and the T/C [2] was 111 % of control.

In the case of `COc1ccc(C=O)c(Cl)c1OC`, the T/C (dose: 12.0 mg/kg/injection, schedule: Q04DX003 (ip), vehicle: Klucel (hydroxypropylcellulose) (HPC)) is reported as 90 % of control, the T/C (dose: 25.0 mg/kg/injection, schedule: Q04DX003 (ip), vehicle: Klucel (hydroxypropylcellulose) (HPC)) is reported as 100 % of control and the T/C (dose: 50.0 mg/kg/injection, schedule: Q04DX003 (ip), vehicle: Klucel (hydroxypropylcellulose) (HPC)) is reported as 95 % of control. For the same molecule, the T/C (dose: 100.0 mg/kg/injection, schedule: Q01DX001 (ip), vehicle: Klucel (hydroxypropylcellulose) (HPC)) was 113 % of control, the T/C [1] was 109 % of control and the T/C (dose: 200.0 mg/kg/injection, schedule: Q01DX001 (ip), vehicle: Klucel (hydroxypropylcellulose) (HPC)) was 109 % of control. For the same molecule, the T/C [3] was 104 % of control and the T/C (dose: 400.0 mg/kg/injection, schedule: Q01DX001 (ip), vehicle: Klucel (hydroxypropylcellulose) (HPC)) was 113 % of control.

For `COc1cccc2c1C(=O)c1c(O)c3c(c(O)c1C2=O)C[C@@](O)(/C(C)=N/NC(=O)c1ccc(Cl)c(Cl)c1)C[C@@H]3OC1CC(N)C(O)C(C)O1` (stereo not given in full), the T/C (dose: 0.5 mg/kg/injection, schedule: Q01DX009 (ip), vehicle: water) was 202 % of control, the T/C (dose: 1.0 mg/kg/injection, schedule: Q01DX009 (ip), vehicle: water) was 234 % of control and 156 % of control and the T/C (dose: 2.0 mg/kg/injection, schedule: Q01DX009 (ip), vehicle: water) was 295 % of control and 186 % of control. The T/C (dose: 4.0 mg/kg/injection, schedule: Q01DX009 (ip), vehicle: water) was 295 % of control and 186 % of control.

In the case of `O=S(=O)(O)O.[Ga]`, the T/C (dose: 8.25 mg/kg/injection, schedule: Q01DX009 (ip), vehicle: saline sonified) is reported as 100 % of control, the T/C (dose: 50.0 mg/kg/injection, schedule: Q04DX003 (ip), vehicle: saline with Tween-80) is reported as 90 % of control and the T/C [4] is reported as 95 % of control. For the same molecule, the T/C (dose: 134.0 mg/kg/injection, schedule: Q04DX003 (ip), vehicle: saline with Tween-80) was 92 % of control, the T/C [5] was 123 % of control and the T/C (dose: 300.0 mg/kg/injection, schedule: Q04DX003 (ip), vehicle: saline with Tween-80) was 96 % of control.

In the case of `CC(O)(/C=C\c1ccccc1)c1ccccc1` (stereo not given), the T/C (dose: 100.0 mg/kg/injection, schedule: Q01DX009 (ip), vehicle: saline with Tween-80) is reported as 105 % of control, the T/C [4] is reported as 95 % of control and the T/C (dose: 200.0 mg/kg/injection, schedule: Q01DX009 (ip), vehicle: saline with Tween-80) is reported as 107 % of control. For the same molecule, the T/C [5] was 104 % of control, the T/C (dose: 400.0 mg/kg/injection, schedule: Q01DX009 (ip), vehicle: saline with Tween-80) was 105 % of control and the T/C (dose: 400.0 mg/kg/injection, schedule: Q04DX003 (ip), vehicle: saline with Tween-80) was 104 % of control.

In the case of `CC(C)Cn1c(Cl)c(/C=N\Nc2ccccc2[N+](=O)[O-])c2ccccc21`, the T/C (dose: 100.0 mg/kg/injection, schedule: Q04DX002 (ip), vehicle: Klucel (hydroxypropylcellulose) (HPC)) is reported as 92 % of control and the T/C (dose: 200.0 mg/kg/injection, schedule: Q04DX002 (ip), vehicle: Klucel (hydroxypropylcellulose) (HPC)) is reported as 99 % of control.
